Patent publication US9994547B2, “Heteroarylamide inhibitors of TBK1” (Takeda Pharmaceutical Company Limited, priority 2014, dated 2018)

What follows are molecules tested against Full length human TBK1 (Homo sapiens (Human), UniProt Q9UHD2) (assay: Inhibition of TBK1 Enzyme (Example A)). Details: -log(IC50), IC50 molar; 3 nM TBK1, 25 μM ATP, 60 min RT.
Type: biochemical
Summary of the method: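 Full-length N-His human TBK1 from Sf9 baculovirus was tested with 11-point 2.5-fold dilutions (1% DMSO) in Hepes pH 7.4, MgCl2, EDTA, Brij, DTT. After 60 min RT and EDTA quench, microfluidic conversion was fitted and reported as pIC50.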

Chain of Full length human TBK1 (Q9UHD2 whole entry): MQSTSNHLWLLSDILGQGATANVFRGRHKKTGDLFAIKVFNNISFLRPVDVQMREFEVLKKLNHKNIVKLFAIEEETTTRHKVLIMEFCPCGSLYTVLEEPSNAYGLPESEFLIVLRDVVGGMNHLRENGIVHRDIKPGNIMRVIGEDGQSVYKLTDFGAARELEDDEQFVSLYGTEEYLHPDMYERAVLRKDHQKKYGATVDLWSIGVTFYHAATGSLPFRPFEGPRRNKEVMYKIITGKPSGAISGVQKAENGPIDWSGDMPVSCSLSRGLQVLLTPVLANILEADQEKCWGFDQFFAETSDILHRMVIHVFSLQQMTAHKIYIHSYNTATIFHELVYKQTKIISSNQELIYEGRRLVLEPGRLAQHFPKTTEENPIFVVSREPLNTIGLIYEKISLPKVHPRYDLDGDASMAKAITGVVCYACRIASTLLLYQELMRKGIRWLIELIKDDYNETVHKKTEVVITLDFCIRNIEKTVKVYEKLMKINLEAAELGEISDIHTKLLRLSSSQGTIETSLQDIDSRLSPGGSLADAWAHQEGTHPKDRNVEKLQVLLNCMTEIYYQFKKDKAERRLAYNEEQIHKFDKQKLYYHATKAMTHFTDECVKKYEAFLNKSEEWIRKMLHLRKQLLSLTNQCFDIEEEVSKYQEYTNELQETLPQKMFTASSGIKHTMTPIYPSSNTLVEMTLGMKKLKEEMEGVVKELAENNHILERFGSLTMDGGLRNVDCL

SMILES | TBK1 Inhibition (pIC50)
CC(=O)N1CCN(C(=O)CNc2cc(-c3cnc(NC(=O)C4CC4)cn3)cnc2C#N)CC1 [Example 99, N-(5-(5-((2-(4-acetylpiperazin-1-yl)-2-oxoethyl)amino)-6-cyanopyridin-3-yl)pyrazin-2-yl)cyclopropanecarboxamide] | 6.0
N#Cc1ncc(-c2cnc(NC(=O)C3CC3)cn2)cc1NCC(=O)N1CCOC(C(F)(F)F)C1 (stereo not drawn) [Example 100, N-(5-(6-cyano-5-((2-oxo-2-(2-(trifluoromethyl)morpholino)ethyl)amino)pyridin-3-yl)pyrazin-2-yl)cyclopropanecarboxamide] | 6.5
N#Cc1ncc(-c2cnc(NC(=O)C3CC3)cn2)cc1NCC(=O)N1CCC(C#N)C1 (stereo not drawn) [Example 102, N-(5-(6-cyano-5-((2-(3-cyanopyrrolidin-1-yl)-2-oxoethyl)amino)pyridin-3-yl)pyrazin-2-yl)cyclopropanecarboxamide] | 6.6
CC1CN(C(=O)CNc2cc(-c3cnc(NC(=O)C4CC4)cn3)cnc2C#N)CCO1 (stereo not drawn) [Example 103, N-(5-(6-cyano-5-((2-(2-methylmorpholino)-2-oxoethyl)amino)pyridin-3-yl)pyrazin-2-yl)cyclopropanecarboxamide] | 6.8
N#Cc1ncc(-c2cnc(NC(=O)C3CC3)cn2)cc1NCC(=O)N1CC2(COC2)C1 [Example 104, N-(5-(6-cyano-5-((2-oxo-2-(2-oxa-6-azaspiro[3.3]heptan-6-yl)ethyl)amino)pyridin-3-yl)pyrazin-2-yl)cyclopropanecarboxamide] | 5.4
CN1CC(N(C)C(=O)CNc2cc(-c3cnc(NC(=O)C4CC4)cn3)cnc2C#N)C1 [Example 105, N-(5-(6-cyano-5-((2-(methyl(1-methylazetidin-3-yl)amino)-2-oxoethyl)amino)pyridin-3-yl)pyrazin-2-yl)cyclopropanecarboxamide] | 5.6
C[C@H](Nc1cc(-c2cnc(NC(=O)[C@H]3C[C@@H]3C)cn2)cnc1C#N)C(=O)N(C)C [Example 106, (1S,2S)-N-(5-(6-cyano-5-(((S)-1-(dimethylamino)-1-oxopropan-2-yl)amino)pyridin-3-yl)pyrazin-2-yl)-2-methylcyclopropanecarboxamide] | 7.4
C[C@H](Nc1cc(-c2cnc(NC(=O)[C@@H]3C[C@H]3C)cn2)cnc1C#N)C(=O)N(C)C [Example 107, (1R,2R)-N-(5-(6-cyano-5-(((S)-1-(dimethylamino)-1-oxopropan-2-yl)amino)pyridin-3-yl)pyrazin-2-yl)-2-methylcyclopropanecarboxamide] | 7.8
C[C@H](Nc1cc(-c2cnc(NC(=O)[C@@H]3C[C@@H]3C)cn2)cnc1C#N)C(=O)N(C)C [Example 108, (1R,2S)-N-(5-(6-cyano-5-(((S)-1-(dimethylamino)-1-oxopropan-2-yl)amino)pyridin-3-yl)pyrazin-2-yl)-2-methylcyclopropanecarboxamide] | 7.7
C[C@H](Nc1cc(-c2cnc(NC(=O)[C@H]3C[C@H]3C)cn2)cnc1C#N)C(=O)N(C)C [Example 109, (1S,2R)-N-(5-(6-cyano-5-(((S)-1-(dimethylamino)-1-oxopropan-2-yl)amino)pyridin-3-yl)pyrazin-2-yl)-2-methylcyclopropanecarboxamide] | 7.2
CC(O)CN(CC(F)(F)F)C(=O)CNc1cc(-c2cnc(NC(=O)C3CC3)cn2)cnc1C#N (stereo not drawn) [Example 110, N-(5-(6-cyano-5-((2-((2-hydroxypropyl)(2,2,2-trifluoroethyl)amino)-2-oxoethyl)amino)pyridin-3-yl)pyrazin-2-yl)cyclopropanecarboxamide] | 7.5
CC(C)(O)CN(CC(F)(F)F)C(=O)CNc1cc(-c2cnc(NC(=O)C3CC3)cn2)cnc1C#N [Example 111, N-(5-(6-cyano-5-((2-((2-hydroxy-2-methylpropyl)(2,2,2-trifluoroethyl)amino)-2-oxoethyl)amino)pyridin-3-yl)pyrazin-2-yl)cyclopropanecarboxamide] | 6.6
CCN(C)C(=O)[C@H](C)Nc1cc(-c2cnc(NC(=O)C3CC3)cn2)cnc1C#N [Example 112, (S)-N-(5-(6-cyano-5-((1-(ethyl(methyl)amino)-1-oxopropan-2-yl)amino)pyridin-3-yl)pyrazin-2-yl)cyclopropanecarboxamide] | 7.7
N#Cc1ncc(-c2cnc(NC(=O)C3CC3)cn2)cc1NCC(=O)N1C[C@H](CO)C[C@H]1C(F)(F)F [Example 113, N-(5-(6-cyano-5-((2-((2S,4R)-4-(hydroxymethyl)-2-(trifluoromethyl)pyrrolidin-1-yl)-2-oxoethyl)amino)pyridin-3-yl)pyrazin-2-yl)cyclopropanecarboxamide] | 7.6
C[C@H](Nc1cc(-c2cnc(NC(=O)C3CC3)cn2)cnc1C#N)C(=O)NCC(F)F [Example 114, (S)-N-(5-(6-cyano-5-((1-((2,2-difluoroethyl)amino)-1-oxopropan-2-yl)amino)pyridin-3-yl)pyrazin-2-yl)cyclopropanecarboxamide] | 7.7
CN(C)C(=O)C(CCO)Nc1cc(-c2cnc(NC(=O)C3CC3)cn2)cnc1C#N (stereo not drawn) [Example 115, N-(5-(6-cyano-5-((1-(dimethylamino)-4-hydroxy-1-oxobutan-2-yl)amino)pyridin-3-yl)pyrazin-2-yl)cyclopropanecarboxamide] | 6.9
C[C@H](Nc1cc(-c2cnc(NC(=O)C3CC3)cn2)cnc1C#N)C(=O)NCC(F)(F)F [Example 116, (S)-N-(5-(6-cyano-5-((1-oxo-1-((2,2,2-trifluoroethyl)amino)propan-2-yl)amino)pyridin-3-yl)pyrazin-2-yl)cyclopropanecarboxamide] | 7.3
C[C@H](Nc1cc(-c2cnc(NC(=O)C3CC3)cn2)cnc1C#N)C(=O)NCC(C)(F)F [Example 117, (S)-N-(5-(6-cyano-5-((1-((2,2-difluoropropyl)amino)-1-oxopropan-2-yl)amino)pyridin-3-yl)pyrazin-2-yl)cyclopropanecarboxamide] | 7.0
C[C@H](Nc1cc(-c2cnc(NC(=O)C3CC3)cn2)cnc1C#N)C(=O)NC1CC1(F)F (stereo partly drawn) [Example 118, N-(5-(6-cyano-5-(((2S)-1-((2,2-difluorocyclopropyl)amino)-1-oxopropan-2-yl)amino)pyridin-3-yl)pyrazin-2-yl)cyclopropanecarboxamide] | 6.8
CC(NC(=O)[C@H](C)Nc1cc(-c2cnc(NC(=O)C3CC3)cn2)cnc1C#N)C(F)F (stereo partly drawn) [Example 119, N-(5-(6-cyano-5-(((2S)-1-((1,1-difluoropropan-2-yl)amino)-1-oxopropan-2-yl)amino)pyridin-3-yl)pyrazin-2-yl)cyclopropanecarboxamide] | 8.1
CC[C@H](Nc1cc(-c2cnc(NC(=O)C3CC3)cn2)cnc1C#N)C(=O)NCC(F)F [Example 120, (S)-N-(5-(6-cyano-5-((1-((2,2-difluoroethyl)amino)-1-oxobutan-2-yl)amino)pyridin-3-yl)pyrazin-2-yl)cyclopropanecarboxamide] | 7.2
N#Cc1ncc(-c2cnc(NC(=O)C3CC3)cn2)cc1NCC(N)=O [Example 121, N-(5-(5-((2-amino-2-oxoethyl)amino)-6-cyanopyridin-3-yl)pyrazin-2-yl)cyclopropanecarboxamide] | 5.6
CN(C)C(=O)CNc1cc(-c2cnc(NC(=O)C3CC3)cn2)cnc1C#N [Example 122, N-(5-(6-cyano-5-((2-(dimethylamino)-2-oxoethyl)amino)pyridin-3-yl)pyrazin-2-yl)cyclopropanecarboxamide] | 7.0
CN(C)C(=O)CNc1cc(-c2cnc(NC(=O)C3CC3)cn2)ccc1C#N [Example 123, N-(5-(4-cyano-3-((2-(dimethylamino)-2-oxoethyl)amino)phenyl)pyrazin-2-yl)cyclopropanecarboxamide] | 7.2
CCNC(=O)CNc1cc(-c2cnc(NC(=O)C3CC3)cn2)ccc1C#N [Example 124, N-(5-(4-cyano-3-((2-(ethylamino)-2-oxoethyl)amino)phenyl)pyrazin-2-yl)cyclopropanecarboxamide] | 6.5
N#Cc1ccc(-c2cnc(NC(=O)C3CC3)cn2)cc1NCC(=O)N1CCCC1 [Example 125, N-(5-(4-cyano-3-((2-oxo-2-(pyrrolidin-1-yl)ethyl)amino)phenyl)pyrazin-2-yl)cyclopropanecarboxamide] | 7.3
CN(CC(F)(F)F)C(=O)CNc1cc(-c2cnc(NC(=O)C3CC3)cn2)ccc1C#N [Example 126, N-(5-(4-cyano-3-((2-(methyl(2,2,2-trifluoroethyl)amino)-2-oxoethyl)amino)phenyl)pyrazin-2-yl)cyclopropanecarboxamide] | 7.6
CC[C@H](Nc1cc(-c2cnc(NC(=O)C3CC3)cn2)ncc1C#N)C(=O)N(C)C [Example 127, (S)-N-(5-(5-cyano-4-((1-(dimethylamino)-1-oxobutan-2-yl)amino)pyridin-2-yl)pyrazin-2-yl)cyclopropanecarboxamide] | 7.0
CN(C)C(=O)C(CO)Nc1cc(-c2cnc(NC(=O)C3CC3)cn2)cnc1C#N [Example 128, (S)-N-(5-(6-cyano-5-((1-(dimethylamino)-3-hydroxy-1-oxopropan-2-yl)amino)pyridin-3-yl)pyrazin-2-yl)cyclopropanecarboxamide] | 7.1

Same assay, conditions: -log(IC50), IC50 molar; 3 nM TBK1, 25 μM ATP, 60 min RT; read-out: TBK1 Inhibition (pIC50) (converted)

SMILES | IC50 [nM]
N#Cc1ncc(-c2cnc(NC(=O)C3CC3)cn2)cc1NCC(=O)N1CCOC[C@@H]1C(F)(F)F [Example 101, (R)-N-(5-(6-cyano-5-((2-oxo-2-(3-(trifluoromethyl)morpholino)ethyl)amino)pyridin-3-yl)pyrazin-2-yl)cyclopropanecarboxamide] | 200
